Data from patent US12448389B2, “BRM targeting compounds and associated methods of use” (Prelude Therapeutics Incorporated, priority 2020, dated 2025).

Columns and labels:
SMARCA2-HiBiT = biological target: T1, SMARCA2-HiBiT (Homo sapiens, UniProt P51531); experiment: SMARCA2 HiBiT degradation assay in HeLa cells; format: cell-based; details: 18 hours incubation; for DC50: read-out: HeLa_HiBit-SM2 DC50; for Dmax: HeLa, read-out: HeLa-HiBit-SM2 Dmax (%)
T1 construct: SMARCA2-HiBiT knock-in Hela monoclonal cell (CS302366); host or cells: HeLa monoclonal knock-in line (CRISPR HiBiT knock-in at the endogenous locus, heterozygous)
Outline: (§1)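 HeLa monoclonal lines with heterozygous HiBiT knock-in were seeded at 2500 cells/well in EMEM with 10% FBS and treated with compound for 18 h at 37 °C. Remaining tagged protein was measured by Nano-Glo HiBiT lytic luminescence after 30–60 min at RT, and values came from curve fitting.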

SMARCA4-HiBiT = biological target: T2, SMARCA4-HiBiT (Homo sapiens, UniProt P51532); experiment: SMARCA4 HiBiT degradation assay in HeLa cells; format: cell-based; details: 18 hours incubation; for DC50: read-out: HeLa-HiBit-SM4 DC50; for Dmax: HeLa, read-out: HeLa-HiBit-SM4 Dmax (%)
T2 construct: SMARCA4-HiBiT knock-in Hela monoclonal cell (CS3023226); host or cells: HeLa monoclonal knock-in line (CRISPR HiBiT knock-in at the endogenous locus, heterozygous)
Outline: as §1

T1 sequence (P51531 whole entry): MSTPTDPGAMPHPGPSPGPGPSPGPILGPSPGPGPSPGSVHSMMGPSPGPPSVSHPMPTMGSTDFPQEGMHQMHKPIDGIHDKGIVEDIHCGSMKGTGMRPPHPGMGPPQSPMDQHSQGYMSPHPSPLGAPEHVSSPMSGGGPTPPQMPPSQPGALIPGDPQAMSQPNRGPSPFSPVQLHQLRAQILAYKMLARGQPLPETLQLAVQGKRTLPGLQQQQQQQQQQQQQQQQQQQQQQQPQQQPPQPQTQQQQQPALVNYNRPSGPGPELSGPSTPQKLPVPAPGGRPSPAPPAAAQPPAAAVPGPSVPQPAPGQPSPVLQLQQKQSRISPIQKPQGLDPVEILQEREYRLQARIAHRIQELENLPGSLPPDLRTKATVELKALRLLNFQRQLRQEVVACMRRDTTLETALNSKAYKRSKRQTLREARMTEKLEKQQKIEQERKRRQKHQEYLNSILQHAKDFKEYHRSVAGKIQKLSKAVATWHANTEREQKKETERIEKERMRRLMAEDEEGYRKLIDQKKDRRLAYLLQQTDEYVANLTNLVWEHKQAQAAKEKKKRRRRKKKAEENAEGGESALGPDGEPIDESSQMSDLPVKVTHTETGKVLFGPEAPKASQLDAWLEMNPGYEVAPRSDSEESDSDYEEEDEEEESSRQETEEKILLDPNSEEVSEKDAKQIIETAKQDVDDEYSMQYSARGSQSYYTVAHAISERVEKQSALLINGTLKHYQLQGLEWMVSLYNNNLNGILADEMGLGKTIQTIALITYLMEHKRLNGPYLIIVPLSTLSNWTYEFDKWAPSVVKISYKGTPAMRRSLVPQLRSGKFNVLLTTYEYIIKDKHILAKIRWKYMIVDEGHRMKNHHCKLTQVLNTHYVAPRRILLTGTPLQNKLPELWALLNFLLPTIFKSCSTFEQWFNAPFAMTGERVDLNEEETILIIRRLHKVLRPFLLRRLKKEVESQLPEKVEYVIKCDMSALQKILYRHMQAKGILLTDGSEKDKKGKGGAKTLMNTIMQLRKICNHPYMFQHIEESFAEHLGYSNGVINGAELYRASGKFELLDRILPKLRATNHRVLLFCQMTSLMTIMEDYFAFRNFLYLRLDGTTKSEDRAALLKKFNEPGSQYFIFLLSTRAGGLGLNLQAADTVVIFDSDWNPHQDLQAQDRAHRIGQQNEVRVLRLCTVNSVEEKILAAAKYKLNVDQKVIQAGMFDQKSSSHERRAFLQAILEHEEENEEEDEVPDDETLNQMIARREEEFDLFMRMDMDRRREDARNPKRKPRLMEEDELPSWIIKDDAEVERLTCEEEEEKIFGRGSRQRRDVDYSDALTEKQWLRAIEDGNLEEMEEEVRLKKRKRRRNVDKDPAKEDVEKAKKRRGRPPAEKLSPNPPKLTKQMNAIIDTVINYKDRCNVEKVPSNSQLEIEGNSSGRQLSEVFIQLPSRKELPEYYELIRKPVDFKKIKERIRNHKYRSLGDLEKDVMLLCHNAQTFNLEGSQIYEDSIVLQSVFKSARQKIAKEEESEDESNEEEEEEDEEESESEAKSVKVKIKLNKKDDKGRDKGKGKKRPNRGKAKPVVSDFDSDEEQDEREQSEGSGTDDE
T2 sequence (P51532 whole entry): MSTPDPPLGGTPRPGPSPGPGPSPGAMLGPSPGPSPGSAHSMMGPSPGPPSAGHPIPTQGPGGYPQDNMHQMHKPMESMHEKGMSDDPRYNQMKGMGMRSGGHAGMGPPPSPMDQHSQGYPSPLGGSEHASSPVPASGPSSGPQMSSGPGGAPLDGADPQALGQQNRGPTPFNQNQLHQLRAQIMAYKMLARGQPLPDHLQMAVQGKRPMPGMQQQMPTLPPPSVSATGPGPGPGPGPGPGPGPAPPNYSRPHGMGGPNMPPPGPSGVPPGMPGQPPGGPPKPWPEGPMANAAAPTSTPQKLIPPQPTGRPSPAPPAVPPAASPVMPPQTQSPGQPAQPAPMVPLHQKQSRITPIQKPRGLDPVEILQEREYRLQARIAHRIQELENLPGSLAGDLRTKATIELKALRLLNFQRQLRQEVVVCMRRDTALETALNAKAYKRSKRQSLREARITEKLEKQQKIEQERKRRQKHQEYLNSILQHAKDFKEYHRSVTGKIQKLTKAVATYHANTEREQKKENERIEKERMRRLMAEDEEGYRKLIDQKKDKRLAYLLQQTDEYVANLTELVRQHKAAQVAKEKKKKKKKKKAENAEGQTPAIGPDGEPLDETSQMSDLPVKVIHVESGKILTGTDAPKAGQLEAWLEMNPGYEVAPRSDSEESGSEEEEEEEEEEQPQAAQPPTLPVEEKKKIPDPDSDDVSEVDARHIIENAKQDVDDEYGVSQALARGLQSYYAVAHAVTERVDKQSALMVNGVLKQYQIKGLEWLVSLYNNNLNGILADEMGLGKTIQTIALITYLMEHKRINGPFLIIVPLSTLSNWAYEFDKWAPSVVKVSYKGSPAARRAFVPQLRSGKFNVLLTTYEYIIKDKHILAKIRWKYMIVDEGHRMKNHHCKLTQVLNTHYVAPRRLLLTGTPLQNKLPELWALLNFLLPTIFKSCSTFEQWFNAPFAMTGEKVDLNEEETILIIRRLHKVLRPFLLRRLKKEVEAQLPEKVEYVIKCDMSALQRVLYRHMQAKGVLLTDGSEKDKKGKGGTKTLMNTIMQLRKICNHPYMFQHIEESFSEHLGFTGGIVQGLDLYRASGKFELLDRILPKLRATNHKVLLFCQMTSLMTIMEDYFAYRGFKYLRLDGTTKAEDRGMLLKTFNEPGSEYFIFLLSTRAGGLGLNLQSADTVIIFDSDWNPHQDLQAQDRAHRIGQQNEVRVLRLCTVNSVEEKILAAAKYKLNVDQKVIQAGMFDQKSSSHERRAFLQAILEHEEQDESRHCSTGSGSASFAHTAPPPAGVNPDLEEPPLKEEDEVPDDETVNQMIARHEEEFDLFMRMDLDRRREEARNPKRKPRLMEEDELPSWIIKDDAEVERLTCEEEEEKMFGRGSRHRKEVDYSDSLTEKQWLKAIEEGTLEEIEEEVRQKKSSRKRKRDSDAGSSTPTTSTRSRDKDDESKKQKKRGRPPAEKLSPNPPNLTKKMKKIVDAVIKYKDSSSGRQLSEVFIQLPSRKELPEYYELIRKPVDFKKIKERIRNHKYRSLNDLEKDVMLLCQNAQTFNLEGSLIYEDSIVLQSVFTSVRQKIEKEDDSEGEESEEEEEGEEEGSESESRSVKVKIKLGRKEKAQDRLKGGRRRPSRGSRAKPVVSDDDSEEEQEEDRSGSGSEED

| Compound | DC50 (SMARCA2-HiBiT) [nM] | Dmax (SMARCA2-HiBiT) [%] | DC50 (SMARCA4-HiBiT) [nM] | Dmax (SMARCA4-HiBiT) [%] |
| --- | --- | --- | --- | --- |
| O=C1CCC(N2Cc3ccc(N4CCC(CN5CCN(C(=O)N6CCN7c8cc(-c9ccccc9O)nnc8NC[C@H]7C6)CC5C(F)(F)F)CC4)cc3C2=O)C(=O)N1 (stereo partly drawn) [Example 102, 3-(6-(4-((4-((S)-2-(2-hydroxyphenyl)-6,6a,7,8,9,10-hexahydro-5H-pyrazino[1′,2′:4,5]pyrazino[2,3-c]pyridazine-8-carbonyl)-2-(trifluoromethyl)piperazin-1-yl)methyl)piperidin-1-yl)-1-oxoisoindolin-2-yl)piperidine-2,6-dione] | < 10 | > 85 | < 10 | 75 to 85 |
| O=C1CCC(N2C(=O)c3ccc(N4CCO[C@@H](CN5C[C@@H]6[C@H](C5)[C@H]6CN5CCN6c7cc(-c8ccccc8O)nnc7NC[C@H]6C5)C4)cc3C2=O)C(=O)N1 (stereo partly drawn) [Example 51, 2-(2,6-dioxopiperidin-3-yl)-5-((S)-2-(((1R,5S,6R)-6-(((S)-2-(2-hydroxyphenyl)-5,6,6a,7,9,10-hexahydro-8H-pyrazino[1′,2′:4,5]pyrazino[2,3-c]pyridazin-8-yl)methyl)-3-azabicyclo[3.1.0]hexan-3-yl)methyl)morpholino)isoindoline-1,3-dione] | < 10 | > 85 | < 10 | 50 to 75 |
| O=C1CCC(N2C(=O)c3ccc(N4CCC(CN5CCC6(CN7CCN8c9cc(-c%10ccccc%10O)nnc9NC[C@H]8C7)CC6C5)CC4)cc3C2=O)C(=O)N1 (stereo partly drawn) [Example 171, 2-(2,6-dioxopiperidin-3-yl)-5-[4-[[6-[[(10S)-4-(2-hydroxyphenyl)-1,5,6,8,12-pentazatricyclo[8.4.0.02,7]tetradeca-2,4,6-trien-12-yl]methyl]-3-azabicyclo[4.1.0]heptan-3-yl]methyl]piperidin-1-yl]isoindole-1,3-dione] | < 10 | > 85 | < 10 | > 85 |
| O=C1CCC(N2C(=O)c3ccc(NCCN4CCC(N5CCN6c7cc(-c8cc(F)ccc8O)nnc7NC[C@H]6C5)CC4)cc3C2=O)C(=O)N1 (stereo partly drawn) [Example 242, 2-(2,6-dioxopiperidin-3-yl)-5-((2-(4-((S)-2-(5-fluoro-2-hydroxyphenyl)-5,6,6a,7,9,10-hexahydro-8H-pyrazino[1′,2′:4,5]pyrazino[2,3-c]pyridazin-8-yl)piperidin-1-yl)ethyl)amino)isoindoline-1,3-dione] | < 10 | > 85 | < 10 | > 85 |
| O=C1CCC(N2C(=O)c3ccc(N4CCC(CN5CC6CC(CN7CCN8c9cc(-c%10ccccc%10O)nnc9NC[C@H]8C7)C6C5)C(F)(F)C4)cc3C2=O)C(=O)N1 (stereo partly drawn) [Example 188, 5-[3,3-difluoro-4-[[6-[[(10S)-4-(2-hydroxyphenyl)-1,5,6,8,12-pentazatricyclo[8.4.0.02,7]tetradeca-2(7),3,5-trien-12-yl]methyl]-3-azabicyclo[3.2.0]heptan-3-yl]methyl]piperidin-1-yl]-2-(2,6-dioxopiperidin-3-yl)isoindole-1,3-dione] | < 10 | > 85 | < 10 | 75 to 85 |
| O=C1CCC(N2C(=O)c3ccc(N4CCC(CN5C[C@@H]6[C@H](C5)[C@H]6CN5CCN6c7cc(-c8ccccc8O)nnc7NC[C@H]6C5)C(F)(F)C4)cc3C2=O)C(=O)N1 (stereo partly drawn) [Example 182, 5-[3,3-difluoro-4-[[(1S,5R)-6-[[(10S)-4-(2-hydroxyphenyl)-1,5,6,8,12-pentazatricyclo[8.4.0.02,7]tetradeca-2(7),3,5-trien-12-yl]methyl]-3-azabicyclo[3.1.0]hexan-3-yl]methyl]piperidin-1-yl]-2-(2,6-dioxopiperidin-3-yl)isoindole-1,3-dione] | < 10 | > 85 | 10 to 100 | 50 to 75 |
| O=C1CCC(N2Cc3cc(C4CCN(C5CCN(CCCN6CCN7c8cc(-c9ccccc9O)nnc8NC[C@H]7C6)CC5)CC4)ccc3C2=O)C(=O)N1 (stereo partly drawn) [Example 209, 3-(5-(1′-(3-((S)-2-(2-hydroxyphenyl)-5,6,6a,7,9,10-hexahydro-8H-pyrazino[1′,2′:4,5]pyrazino[2,3-c]pyridazin-8-yl)propyl)-[1,4′-bipiperidin]-4-yl)-1-oxoisoindolin-2-yl)piperidine-2,6-dione] | < 10 | > 85 | < 10 | > 85 |
| CC(C)(C)C(=O)OCN1C(=O)CCC(N2C(=O)c3ccc(N4CCC(CN5CCC(CN6CCN7c8cc(-c9ccccc9O)nnc8NC[C@H]7C6)CC5)CC4)cc3C2=O)C1=O (stereo partly drawn) [Example 34, (3-(5-(4-((4-(((S)-2-(2-hydroxyphenyl)-5,6,6a,7,9,10-hexahydro-8H-pyrazino [1′,2′:4,5]pyrazino[2,3-c]pyridazin-8-yl)methyl)piperidin-1-yl)methyl)piperidin-1-yl)-1,3-dioxoisoindolin-2-yl)-2,6-dioxopiperidin-1-yl)methyl pivalate] | < 10 | > 85 | < 10 | > 85 |
| O=C1CCC(N2C(=O)c3ccc(N4CCC5(CN6CCC(CN7CCN8c9cc(-c%10ccccc%10O)nnc9NC[C@H]8C7)CC6)CC5C4)cc3C2=O)C(=O)N1 (stereo partly drawn) [Example 189, 2-(2,6-dioxopiperidin-3-yl)-5-[6-[[4-[[(10S)-4-(2-hydroxyphenyl)-1,5,6,8,12-pentazatricyclo[8.4.0.02,7]tetradeca-2(7),3,5-trien-12-yl]methyl]piperidin-1-yl]methyl]-3-azabicyclo[4.1.0]heptan-3-yl]isoindole-1,3-dione] | < 10 | 75 to 85 | < 10 | 75 to 85 |

Results, then the compound that gave them:

| DC50 (SMARCA2-HiBiT) [nM] | Dmax (SMARCA2-HiBiT) [%] | DC50 (SMARCA4-HiBiT) [nM] | Dmax (SMARCA4-HiBiT) [%] | Compound |
| --- | --- | --- | --- | --- |
| < 10 | > 85 | < 10 | > 85 | O=C1CCC(N2Cc3ccc(N4CCC(CN5C[C@@H]6[C@H](C5)[C@H]6CN5CCN6c7cc(-c8ccccc8O)nnc7NC[C@H]6C5)CC4)cc3C2=O)C(=O)N1 (stereo partly drawn) [Example 232, 3-(6-(4-(((1R,5S,6r)-6-(((S)-2-(2-hydroxyphenyl)-5,6,6a,7,9,10-hexahydro-8H-pyrazino[1′,2′:4,5]pyrazino[2,3-c]pyridazin-8-yl)methyl)-3-azabicyclo[3.1.0]hexan-3-yl)methyl)piperidin-1-yl)-1-oxoisoindolin-2-yl)piperidine-2,6-dione] |
| < 10 | > 85 | < 10 | > 85 | CC1CN(c2ccc3c(c2)C(=O)N(C2CCC(=O)NC2=O)C3=O)CCC1CN1CCC(CN2CCN3c4cc(-c5ccccc5O)nnc4NC[C@H]3C2)CC1 (stereo partly drawn) [Example 170, 2-(2,6-dioxopiperidin-3-yl)-5-[4-[[4-[[(10S)-4-(2-hydroxyphenyl)-1,5,6,8,12-pentazatricyclo[8.4.0.02,7]tetradeca-2(7),3,5-trien-12-yl]methyl]piperidin-1-yl]methyl]-3-methylpiperidin-1-yl]isoindole-1,3-dione] |
| < 10 | > 85 | < 10 | 75 to 85 | O=C1CCC(N2C(=O)c3ccc(N4CCC(CN5CCC(CN6CCN7c8cc(-c9ccccc9O)nnc8NC[C@H]7C6)C5)CC4)cc3C2=O)C(=O)N1 (stereo partly drawn) [Example 33, 2-(2,6-dioxopiperidin-3-yl)-5-(4-((3-(((S)-2-(2-hydroxyphenyl)-5,6,6a,7,9,10-hexahydro-8H-pyrazino[1′,2′:4,5]pyrazino[2,3-c]pyridazin-8-yl)methyl)pyrrolidin-1-yl)methyl)piperidin-1-yl)isoindoline-1,3-dione] |
| < 10 | > 85 | < 10 | > 85 | O=C1CCC(N2C(=O)c3ccc(N4CCC(CN5CCC(CCN6CCN7c8cc(-c9ccccc9O)nnc8NC[C@H]7C6)CC5)CC4)cc3C2=O)C(=O)N1 (stereo partly drawn) [Example 229, 2-(2,6-dioxopiperidin-3-yl)-5-(4-((4-(2-((S)-2-(2-hydroxyphenyl)-5,6,6a,7,9,10-hexahydro-8H-pyrazino[1′,2′:4,5]pyrazino[2,3-c]pyridazin-8-yl)ethyl)piperidin-1-yl)methyl)piperidin-1-yl)isoindoline-1,3-dione] |
| < 10 | > 85 | 10 to 100 | 75 to 85 | O=C1CCC(N2Cc3ccc(C4CCN(CC5CCN(C(=O)N6CCN7c8cc(-c9ccccc9O)nnc8NC[C@H]7C6)CC5)CC4)cc3C2=O)C(=O)N1 (stereo partly drawn) [Example 143, 3-(6-(1-((1-((S)-2-(2-hydroxyphenyl)-6,6a,7,8,9,10-hexahydro-5H-pyrazino[1′,2′:4,5]pyrazino[2,3-c]pyridazine-8-carbonyl)piperidin-4-yl)methyl)piperidin-4-yl)-1-oxoisoindolin-2-yl) piperidine-2,6-dione] |
| < 10 | > 85 | < 10 | > 85 | CC1CN(CC2CCN(c3ccc4c(c3)C(=O)N(C3CCC(=O)NC3=O)C4)CC2)CC(C)N1C(=O)N1CCN2c3cc(-c4ccccc4O)nnc3NC[C@H]2C1 (stereo partly drawn) [Example 266, 3-(6-(4-((4-((S)-2-(2-hydroxyphenyl)-6,6a,7,8,9,10-hexahydro-5H-pyrazino[1′,2′:4,5]pyrazino[2,3-c]pyridazine-8-carbonyl)-3,5-dimethylpiperazin-1-yl)methyl)piperidin-1-yl)-1-oxoisoindolin-2-yl)piperidine-2,6-dione] |
